In US10023590B2, “Substituted pyridine compounds having herbicidal activity” (BASF SE, priority 2014, dated 2018) one finds Herbicidal activity and pest or weed control data, which are given here for one compound.

Type in all cases: in vivo
One data set deals with Ambrosia artemisiifolia. Description: Greenhouse post-emergence herbicidal activity, AMBEL. The settings on record: scale 0 to 100. Summed up:
(§1)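 Post-emergence greenhouse test: plants in loamy sand (~3.0% humus) grown to 3-15 cm, then treated with active ingredient suspended or emulsified in water. Kept at 10-25° C or 20-35° C depending on species for 2 to 4 weeks; damage scored 0 (none) to 100 (complete destruction of aerial parts).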

In the next data set the test system is Zea mays. Briefly: Greenhouse post-emergence herbicidal activity on crop ZEAMX (corn, maize). Also noted: key: 0 = no damage/normal growth, 100 = no emergence or complete destruction. The settings on record: ZEAMX (corn, crop), scale 0 to 100. Summed up: as §1
A further data set deals with Echinocloa crus-galli. Description: Greenhouse post-emergence herbicidal activity, ECHCG. The settings on record: Echinochloa crus-galli, ECHCG, scale 0 to 100. The essentials: as §1
The next data set has as its system Panicum miliaceum. Briefly: Greenhouse post-emergence herbicidal activity, PANMI. The settings on record: 0.031 kg/ha, scale 0 to 100. The text has this:
The culture containers used were plastic flowerpots containing loamy sand with approximately 3.0% of humus as the substrate. The seeds of the test plants were sown separately for each species.
For the post-emergence treatment, the test plants were first grown to a height of 3 to 15 cm, depending on the plant habit, and only then treated with the active ingredients which had been suspended or emulsified in water. For this purpose, the test plants were either sown directly and grown in the same containers, or they were first grown separately as seedlings and transplanted into the test containers a few days prior to treatment.
Depending on the species, the plants were kept at 10-25° C. or 20-35° C., respectively.
The test period extended over 2 to 4 weeks. During this time, the plants were tended, and their response to the individual treatments was evaluated.
Evaluation was carried out using a scale from 0 to 100. 100 means no emergence of the plants, or complete destruction of at least the aerial moieties, and 0 means no damage, or normal course of growth. A good herbicidal activity is given at values of at least 70 and a very good herbicidal activity is given at values of at least 85.

In another data set the test system is Oryza sativa. Description: Greenhouse post-emergence herbicidal activity on crop ORYSA (rice). The settings on record: ORYSA (rice, crop), 0.031 kg/ha, scale 0 to 100. Summed up:
as §1

For another data set, the system named is Amaranthus retroflexus. Description: Greenhouse post-emergence herbicidal activity, AMARE. The settings on record: AMARE, 1 kg/ha, scale 0 to 100. Summed up: as §1
The test system of the next data set is Abutilon theophrasti. Briefly: Greenhouse post-emergence herbicidal activity, ABUTH. The settings on record: ABUTH, scale 0 to 100. Summed up:
as §1

For the next data set, the system named is Chenopodium album. Briefly: Greenhouse post-emergence herbicidal activity, CHEAL. The settings on record: scale 0 to 100. The essentials: as §1

The term pest or weed control denotes how far the test organism was held down. Consider `CN(c1c(Cl)ccc(C2=C(O)c3ncccc3CS2(=O)=O)c1Cl)S(=O)(=O)C1CC1` [I-27, N-[2,6-dichloro-3-(8-hydroxy-6,6-dioxo-5H-thiopyrano[4,3-b]pyridin-7-yl)phenyl]-N-methyl-cyclopropanesulfonamide], for which the Herbicidal activity was determined as 70 in the data set with Ambrosia artemisiifolia (0.031 kg/ha); 75 with Ambrosia artemisiifolia (0.063 kg/ha); 15 with Zea mays (0.031 kg/ha); 20 in the data set with Zea mays (0.063 kg/ha); 75 in the data set on Panicum miliaceum; 40 in the data set with Oryza sativa. Moreover, the pest or weed control at 63 g/ha is 98% with Echinocloa crus-galli (0.063 kg/ha) and 100% with Chenopodium album (0.063 kg/ha). Besides, the pest or weed control at 125 g/ha in the data set on Echinocloa crus-galli (0.125 kg/ha) came to 98%; in the data set with Abutilon theophrasti (0.125 kg/ha) it was 80%; in the data set with Chenopodium album (0.125 kg/ha), 100%. The pest or weed control at 1000 g/ha in the data set with Echinocloa crus-galli (1 kg/ha) was 98%; in the data set on Amaranthus retroflexus it was 100%; in the data set on Abutilon theophrasti (1 kg/ha) it was 95%. The pest or weed control at 31 g/ha in the data set with Chenopodium album (0.031 kg/ha) is 100%.
